Measured values from PubChem BioAssay AID1963863 (Molecular Pharmacology Branch, DTP, NCI, 2024).

System: 931267-113-T-J1-PDC KRAS spheroid with HUVEC/MSC, viability
Assay: Anticancer human tumor 931267-113-T-J1-PDC patient-derived colon adenocarcinoma cell line growth inhibition [KRAS2]
Details: for IC50: curve of first compound; for viability, T/C: stronger effect = lower value
Summary of the method: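 Combination screen of spheroid viability in tumor-cell co-cultures with endothelial (HUVEC) and mesenchymal stem cell stroma. Each agent was tested in half-log dilutions, topping at clinical Cmax or at 10 microM without a known Cmax.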

[1] = second compound 0.1 µM, first compound 0.01 µM
[2] = second compound 0.1 µM, first compound 0.0316 µM
[3] = second compound 0.1 µM, first compound 0.1 µM
[4] = second compound 0.1 µM, first compound 0.316 µM
[5] = second compound 0.1 µM, first compound 1 µM
[6] = second compound 0.1 µM, first compound 3.16 µM
[7] = second compound 0.316 µM, first compound 0.01 µM
[8] = second compound 0.316 µM, first compound 0.0316 µM
[9] = second compound 0.316 µM, first compound 0.1 µM
[10] = second compound 0.316 µM, first compound 0.316 µM
[11] = second compound 0.316 µM, first compound 1 µM
[12] = second compound 0.316 µM, first compound 3.16 µM
[13] = second compound 1 µM, first compound 0.01 µM
[14] = second compound 1 µM, first compound 0.0316 µM
[15] = second compound 1 µM, first compound 0.1 µM
[16] = second compound 1 µM, first compound 0.316 µM
[17] = second compound 1 µM, first compound 1 µM
[18] = second compound 1 µM, first compound 3.16 µM
[19] = second compound 3.16 µM, first compound 0.01 µM
[20] = second compound 3.16 µM, first compound 0.0316 µM
[21] = second compound 3.16 µM, first compound 0.1 µM
[22] = second compound 3.16 µM, first compound 0.316 µM
[23] = second compound 3.16 µM, first compound 1 µM
[24] = second compound 3.16 µM, first compound 3.16 µM
[25] = second compound 10 µM, first compound 0.0316 µM
[26] = second compound 10 µM, first compound 0.1 µM
[27] = second compound 10 µM, first compound 0.316 µM
[28] = second compound 10 µM, first compound 1 µM
[29] = second compound 10 µM, first compound 3.16 µM
[30] = second compound 0.1 µM, first compound 10 µM
[31] = second compound 0.316 µM, first compound 10 µM
[32] = second compound 1 µM, first compound 10 µM
[33] = second compound 3.16 µM, first compound 10 µM
[34] = second compound 10 µM, first compound 10 µM
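Also: compound exposure lasted 7 days before the readout.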
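For viability, T/C in this document: 100% = DMSO vehicle control viability.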

Row | SMILES | IC50 (second compound 0.1 µM) | IC50 (second compound 0.316 µM) | IC50 (second compound 1 µM) | IC50 (second compound 3.16 µM) | viability, T/C [2] | viability, T/C [3] | viability, T/C [4] | viability, T/C [5] | viability, T/C [6] | viability, T/C [8] | viability, T/C [9] | viability, T/C [10] | viability, T/C [11] | viability, T/C [12] | viability, T/C [14] | viability, T/C [15] | viability, T/C [16] | viability, T/C [17] | viability, T/C [18] | viability, T/C [20] | also measured
1 | CC1COCCN1c1cc(-c2ccnn2C)c2ccnc(-c3ccn[nH]3)c2n1 (stereo not given) + C=CC(=O)N1CCN(c2nc(=O)n(-c3c(C)ccnc3C(C)C)c3nc(-c4c(O)cccc4F)c(F)cc23)C(C)C1 | 42 nM | 50.4 nM | 44.4 nM | 53.5 nM | 58% | 25.9% | 17.3% | 20% | 19.7% | 68.7% | 22.5% | 18.1% | 19.9% | 20.4% | 59.5% | 27.5% | 21.1% | 22.1% | 22.6% | 71.4% | IC50 (second compound 10 µM): 28.1 nM; viability, T/C [1]: 95.5%; viability, T/C [7]: 90.1%; viability, T/C [13]: 122%; viability, T/C [19]: 117%; viability, T/C [21]: 24.8%; viability, T/C [22]: 18.4%; viability, T/C [23]: 21.8%; viability, T/C [24]: 22.1%; viability, T/C (second compound 10 µM, first compound 0.01 µM): 92.8%; viability, T/C [25]: 45.1%; viability, T/C [26]: 24.1%; viability, T/C [27]: 23.9%; viability, T/C [28]: 24.2%; viability, T/C [29]: 19.9%
2 | CC1OCC2(CCN(c3cnc(Sc4ccnc(N)c4Cl)c(N)n3)CC2)C1N (stereo not given) + C=CC(=O)N1CCN(c2nc(=O)n(-c3c(C)ccnc3C(C)C)c3nc(-c4c(O)cccc4F)c(F)cc23)C(C)C1 | > 10000 nM | > 10000 nM | > 10000 nM | > 10000 nM | 86.7% | 73.4% | 69.9% | 64.8% | 67.5% | 119% | 92.3% | 83.3% | 73.6% | 80.4% | 118% | 87.8% | 79% | 64.1% | 78.7% | 99.7% | IC50 (second compound 10 µM): > 10000 nM; viability, T/C [30]: 77.4%; viability, T/C [31]: 83.5%; viability, T/C [32]: 78.9%; viability, T/C [21]: 91.8%; viability, T/C [22]: 100%; viability, T/C [23]: 87.3%; viability, T/C [24]: 70.1%; viability, T/C [33]: 82.3%; viability, T/C [25]: 92.3%; viability, T/C [26]: 74.8%; viability, T/C [27]: 79.7%; viability, T/C [28]: 75.6%; viability, T/C [29]: 74.1%; viability, T/C [34]: 67%
3 | Cn1nccc1Nc1nccc(-c2cc3c(s2)C(C)(C)N(CCN2CCOCC2)C3=O)n1 + C=CC(=O)N1CCN(c2nc(=O)n(-c3c(C)ccnc3C(C)C)c3nc(-c4c(O)cccc4F)c(F)cc23)C(C)C1 | 568 nM | 601 nM | 598 nM | 611 nM | 94.2% | 90.4% | 63.4% | 38.2% | 5.19% | 109% | 84.2% | 74.9% | 34% | 8.86% | 82% | 104% | 72.8% | 30.6% | 6.74% | 93.3% | IC50 (second compound 10 µM): 703 nM; viability, T/C [30]: 5.01%; viability, T/C [31]: 5.22%; viability, T/C [32]: 6.41%; viability, T/C [21]: 101%; viability, T/C [22]: 81.1%; viability, T/C [23]: 26.6%; viability, T/C [24]: 9.57%; viability, T/C [33]: 9.73%; viability, T/C [25]: 91.2%; viability, T/C [26]: 95.3%; viability, T/C [27]: 74.9%; viability, T/C [28]: 39.3%; viability, T/C [29]: 14.1%; viability, T/C [34]: 11%
4 | CC(=O)OC12COC1CC(O)C1(C)C(=O)C(O)C3=C(C)C(OC(=O)C(O)C(NC(=O)OC(C)(C)C)c4ccccc4)CC(O)(C(OC(=O)c4ccccc4)C21)C3(C)C (stereo not given) + C=CC(=O)N1CCN(c2nc(OCC3CCCN3C)nc3c2CCN(c2cccc4cccc(C)c24)C3)CC1CC#N | > 3160 nM | > 3160 nM | 1300 nM | > 3160 nM | 99.4% | 89.6% | 82.7% | 72.1% | 82.4% | 109% | 94.7% | 75.8% | 76.7% | 75.5% | 91.4% | 77% | 86% | 54.6% | 34.5% | 104% | IC50 (second compound 0.0316 µM): > 3160 nM; viability, T/C (second compound 0.0316 µM, first compound 0.01 µM): 87.4%; viability, T/C (second compound 0.0316 µM, first compound 0.0316 µM): 86.6%; viability, T/C (second compound 0.0316 µM, first compound 0.1 µM): 76.2%; viability, T/C (second compound 0.0316 µM, first compound 0.316 µM): 91.5%; viability, T/C (second compound 0.0316 µM, first compound 1 µM): 128%; viability, T/C (second compound 0.0316 µM, first compound 3.16 µM): 78.6%; viability, T/C [1]: 106%; viability, T/C [7]: 126%; viability, T/C [13]: 84.5%; viability, T/C [19]: 83.5%; viability, T/C [21]: 102%; viability, T/C [22]: 84.8%; viability, T/C [23]: 91.7%; viability, T/C [24]: 90.1%
